Measurements reported in ChEMBL document CHEMBL6103578, “Design and synthesis three novel series of derivatives using natural acetylcholinesterase inhibitor-RLMS as template and in vitro, in vivo and in silico activities verification” (Eur J Med Chem, 2025).

What was measured:
Acetylcholinesterase = Acetylcholinesterase (Homo sapiens, UniProt P22303); assay: Inhibition of AChE (unknown origin) using ATCI as substrate preincubated for 20 mins followed by substrate addition measured after 30 mins by DTNB assay
SH-SY5Y = assay: Neuroprotective effect against H2O2-induced cell injury in human SH-SY5Y cells assessed as cell survival at 25 to 100 uM preincubated for 1 hr followed by H2O2 addition measured after 2 hrs by MTT assay (reference value: 57.76 %); type: functional; conditions: dose 25-100 µM, time 3 hrs

Acetylcholinesterase, sequence (P22303 whole entry): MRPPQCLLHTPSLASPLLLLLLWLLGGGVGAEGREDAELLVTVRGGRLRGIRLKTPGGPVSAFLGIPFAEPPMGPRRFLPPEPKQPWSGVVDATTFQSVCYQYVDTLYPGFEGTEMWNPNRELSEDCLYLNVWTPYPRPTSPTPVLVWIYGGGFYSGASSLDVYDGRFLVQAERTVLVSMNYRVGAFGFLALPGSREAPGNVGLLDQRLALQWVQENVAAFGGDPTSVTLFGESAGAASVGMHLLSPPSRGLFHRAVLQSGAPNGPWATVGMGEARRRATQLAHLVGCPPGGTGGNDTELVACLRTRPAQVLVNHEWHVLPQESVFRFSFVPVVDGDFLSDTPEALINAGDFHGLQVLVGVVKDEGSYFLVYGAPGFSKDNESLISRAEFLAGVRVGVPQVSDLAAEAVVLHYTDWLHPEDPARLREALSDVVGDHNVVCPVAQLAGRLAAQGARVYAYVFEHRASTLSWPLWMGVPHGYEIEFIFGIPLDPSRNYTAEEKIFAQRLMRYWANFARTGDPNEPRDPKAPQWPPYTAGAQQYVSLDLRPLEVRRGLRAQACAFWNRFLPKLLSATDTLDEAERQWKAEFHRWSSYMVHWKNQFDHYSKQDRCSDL

For `C[C@@H]1CC[C@]2(C(=O)O)CC[C@]3(C)C(=CC[C@@H]4[C@@]5(C)C(C=O)=C[C@@](C)(COC(=O)c6ccc(Cl)cc6)[C@@H]5CC[C@]43C)[C@@H]2[C@]1(C)OC(=O)c1ccc(Cl)cc1`, the IC50 (Acetylcholinesterase) was greater than 100 µM and the Activity (SH-SY5Y) was greater than 57.76%.

`COc1ccc(C(=O)OC[C@]2(C)C=C(C=O)[C@@]3(C)[C@H]2CC[C@]2(C)[C@@H]3CC=C3[C@H]4[C@](C(=O)O)(CC[C@@H](C)[C@@]4(C)OC(=O)c4ccc(OC)cc4)CC[C@]32C)cc1` gave an IC50 (Acetylcholinesterase) of 70.2 µM and an Activity (SH-SY5Y) greater than 57.76%.

`C[C@@H]1CC[C@]2(C(=O)O)CC[C@]3(C)C(=CC[C@@H]4[C@@]5(C)C(C=O)=C[C@@](C)(COC(=O)c6ccc(C(F)(F)F)cc6)[C@@H]5CC[C@]43C)[C@@H]2[C@]1(C)O` showed an IC50 (Acetylcholinesterase) greater than 100 µM and an Activity (SH-SY5Y) greater than 57.76%.

In the case of `C[C@@H]1CC[C@]2(C(=O)O)CC[C@]3(C)C(=CC[C@@H]4[C@@]5(C)C(C=O)=C[C@@](C)(COC(=O)CCc6ccccc6)[C@@H]5CC[C@]43C)[C@@H]2[C@]1(C)O`, the IC50 (Acetylcholinesterase) is reported as 46.2 µM and the Activity (SH-SY5Y) is reported as greater than 57.76%.

For `C[C@@H]1CC[C@]2(C(=O)O)CC[C@]3(C)C(=CC[C@@H]4[C@@]5(C)C[C@@H](O)[C@H](OC(=O)c6ccc(C(F)(F)F)cc6)[C@@](C)(CO)[C@@H]5CC[C@]43C)[C@@H]2[C@]1(C)O`, the IC50 (Acetylcholinesterase) was greater than 100 µM and the Activity (SH-SY5Y) was greater than 57.76%.

With `C[C@@H]1CC[C@]2(C(=O)NCc3ccc(Br)cc3)CC[C@]3(C)C(=CC[C@@H]4[C@@]5(C)C[C@@H](O)[C@H](O)[C@@](C)(CO)[C@@H]5CC[C@]43C)[C@@H]2[C@]1(C)O` the IC50 (Acetylcholinesterase) was 84.5 µM and the Activity (SH-SY5Y) was greater than 57.76%.

Compound `C[C@@H]1CC[C@]2(C(=O)O)CC[C@]3(C)C(=CC[C@@H]4[C@@]5(C)C[C@@H](OC(=O)c6ccc(Cl)cc6)[C@H](O)[C@@](C)(CO)[C@@H]5CC[C@]43C)[C@@H]2[C@]1(C)OC(=O)c1ccc(Cl)cc1` has an IC50 (Acetylcholinesterase) of 54.3 µM and an Activity (SH-SY5Y) of less than 57.76%.

Compound `C[C@@H]1CC[C@]2(C(=O)NCCc3ccc(Cl)c(Cl)c3)CC[C@]3(C)C(=CC[C@@H]4[C@@]5(C)C[C@@H](O)[C@H](O)[C@@](C)(CO)[C@@H]5CC[C@]43C)[C@@H]2[C@]1(C)O` has an IC50 (Acetylcholinesterase) greater than 100 µM and an Activity (SH-SY5Y) greater than 57.76%.

With `C[C@@H]1CC[C@]2(C(=O)O)CC[C@]3(C)C(=CC[C@@H]4[C@@]5(C)C[C@@H](OC(=O)CCc6ccccc6)[C@H](O)[C@@](C)(CO)[C@@H]5CC[C@]43C)[C@@H]2[C@]1(C)O` the IC50 (Acetylcholinesterase) was 11.5 µM and the Activity (SH-SY5Y) was greater than 57.76%.

Compound `C[C@@H]1CC[C@]2(C(=O)NCc3cccc(F)c3)CC[C@]3(C)C(=CC[C@@H]4[C@@]5(C)C[C@@H](O)[C@H](O)[C@@](C)(CO)[C@@H]5CC[C@]43C)[C@@H]2[C@]1(C)O` has an IC50 (Acetylcholinesterase) greater than 100 µM and an Activity (SH-SY5Y) of less than 57.76%.

Compound `COc1ccc(C(=O)O[C@]2(C)[C@H](C)CC[C@]3(C(=O)O)CC[C@]4(C)C(=CC[C@@H]5[C@@]6(C)C(C=O)=C[C@@](C)(CO)[C@@H]6CC[C@]54C)[C@@H]32)cc1` has an IC50 (Acetylcholinesterase) greater than 100 µM and an Activity (SH-SY5Y) greater than 57.76%.

Work on `CCCCCCNC(=O)[C@]12CC[C@@H](C)[C@@](C)(O)[C@H]1C1=CC[C@@]3(C)[C@@](C)(CC[C@H]4[C@](C)(CO)[C@@H](O)[C@H](O)C[C@@]43C)[C@]1(C)CC2` yielded an IC50 (Acetylcholinesterase) greater than 100 µM and an Activity (SH-SY5Y) greater than 57.76%.

Work on `CCCC(=O)OC[C@]1(C)C=C(C=O)[C@@]2(C)[C@H]1CC[C@]1(C)[C@@H]2CC=C2[C@H]3[C@](C(=O)O)(CC[C@@H](C)[C@@]3(C)O)CC[C@]21C` yielded an IC50 (Acetylcholinesterase) greater than 100 µM and an Activity (SH-SY5Y) of less than 57.76%.

Work on `C[C@@H]1CC[C@]2(C(=O)O)CC[C@]3(C)C(=CC[C@@H]4[C@@]5(C)C[C@@H](OC(=O)c6ccc(C(F)(F)F)cc6)[C@H](OC(=O)c6ccc(C(F)(F)F)cc6)[C@@](C)(CO)[C@@H]5CC[C@]43C)[C@@H]2[C@]1(C)O` yielded an IC50 (Acetylcholinesterase) of 43.4 µM and an Activity (SH-SY5Y) greater than 57.76%.

In the case of `C[C@@H]1CC[C@]2(C(=O)NCc3ccccc3F)CC[C@]3(C)C(=CC[C@@H]4[C@@]5(C)C[C@@H](O)[C@H](O)[C@@](C)(CO)[C@@H]5CC[C@]43C)[C@@H]2[C@]1(C)O`, the IC50 (Acetylcholinesterase) is reported as greater than 100 µM and the Activity (SH-SY5Y) is reported as less than 57.76%.
